# Experimental data published in patent publication US20230346784A1 (priority 2020, published 2023).
# Entries after “also recorded” stand apart in the source; their conditions may differ.
# Columns and labels:
# APH = APH inhibition / IC50 threshold used with simulated concentrations (FIG. 11); design: species or system human; conditions: dotted line in FIG. 11, serum ALXN2040 concentration
# TF1PIGAnull cells = assay type: cell-based, human
# [1] = tested on: C5b-9 deposition on TF1PIGAnull cells; assay type: cell-based, human
# [2] = tested on: C3c deposition on TF1PIGAnull cells; assay type: cell-based, human
# [3] = tested on: SARS-CoV-2 spike proteins binding to TF1PIGAnull cells; assay: Flow cytometry of coronavirus protein binding to TF1PIGAnull cells (heparan sulfate blockade, sialidase treatment); design: species or system human; conditions: sulfate sodium salt; for binding of S1 subunit to TF1PIGAnull cells: 5 μg/mL His-tagged S1 co-incubated with 2 mg/mL heparan sulfate solution; for binding of S2 subunit to TF1PIGAnull cells: 5 μg/mL His-tagged S2 co-incubated with 2 mg/mL heparan sulfate solution
compound,measurement,setting,value
"CC(=O)c1nn(CC(=O)N2C[C@H](F)C[C@H]2C(=O)Nc2cccc(Br)n2)c2ccc(-c3cnc(C)nc3)cc12 [Compound 1, danicopan]",IC50 value,APH,0.235 µg/mL
CC(=O)c1nn(CC(=O)N2[C@H]3C[C@]4(C[C@@H]24)Cn2cc(nn2)COCc2ccc(Br)nc2NC3=O)c2ccc(-c3cnc(C)nc3)cc12 [Compound 2],cell killing in the mHam assay induced by S1 and S2,TF1PIGAnull cells,inhibited; also recorded: prevented cell death
same,C5b-9 deposition induced by S1 and S2,[1],inhibit
same,S1-induced C5b-9 deposition,[1],blocking; also recorded: completely blocked
same,S2-induced C5b-9 deposition,[1],blocking
same,C3c deposition induced by S1 and S2,[2],more potent in blocking C3c deposition; also recorded: inhibit
same,S1-induced C3c deposition,[2],blocking; also recorded: completely blocked
same,S2-induced C3c deposition,[2],blocking
Heparan sulfate sodium salt,binding of S1 subunit to TF1PIGAnull cells,[3]; listed as HS,significantly blocked
same,binding of S1 subunit to TF1PIGAnull cells,[3],completely blocked
same,binding of S2 subunit to TF1PIGAnull cells,[3]; listed as HS,significantly blocked
same,binding of S2 subunit to TF1PIGAnull cells,[3],completely blocked
